{
  "source": "paper PMC7269146",
  "about": "“Jingzhaotoxin-X, a gating modifier of Kv4.2 and Kv4.3 potassium channels purified from the venom of the Chinese tarantula Chilobrachys jingzhao” (The Journal of Venomous Animals and Toxins Including …, 2020)",
  "key": {"[1]": {"target": "T1, Kv4.2 (Rattus norvegicus, UniProt Q63881)", "T1 construct": "expressed in transfected cells; host or cells: HEK293t", "T1 sequence (Q63881 1-630)": "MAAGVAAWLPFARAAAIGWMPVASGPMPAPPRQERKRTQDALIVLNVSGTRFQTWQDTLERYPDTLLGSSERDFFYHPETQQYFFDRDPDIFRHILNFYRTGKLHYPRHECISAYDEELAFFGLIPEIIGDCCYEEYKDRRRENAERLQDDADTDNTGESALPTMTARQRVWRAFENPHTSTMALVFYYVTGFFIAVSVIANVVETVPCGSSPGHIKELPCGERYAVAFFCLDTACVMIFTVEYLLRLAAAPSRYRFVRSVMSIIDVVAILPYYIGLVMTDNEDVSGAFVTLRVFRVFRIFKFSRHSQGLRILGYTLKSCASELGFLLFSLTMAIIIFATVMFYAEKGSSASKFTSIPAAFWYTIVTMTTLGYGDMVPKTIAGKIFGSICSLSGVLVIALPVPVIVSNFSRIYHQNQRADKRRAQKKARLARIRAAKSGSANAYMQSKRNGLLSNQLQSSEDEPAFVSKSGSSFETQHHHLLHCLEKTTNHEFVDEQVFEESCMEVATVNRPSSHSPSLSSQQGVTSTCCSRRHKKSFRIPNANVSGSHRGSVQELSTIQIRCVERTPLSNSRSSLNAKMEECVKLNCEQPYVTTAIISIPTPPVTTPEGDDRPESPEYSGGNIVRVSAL", "assay": "triple-pulse protocol, toxin dissociation by strong depolarization, Kv4.2 in HEK 293T cells", "assay_type": "cell-based", "conditions": "500 nM; for inhibition at 0.5 µM: HEK-293T", "source_text": "Rat cDNA genes encoding Kv4.2 (Accession: NM_031730.2) and Kv4.3 (Accession: AB003587.1) were subcloned to vector pcDNA3.1. In addition, human cDNA genes encoding Nav1.7 (Accession: DQ857292.1) and Nav1.5 (Accession: AB158469.2) were subcloned to vectors pcDNA3.1-mod and pcDNA3.1, separately. Then, Kv4.2, Kv4.3, Nav1.5 and Nav1.7 constructs were transiently transfected into the human embryonic kidney 293t (HEK293t) cells using lipofectamine 2000 (Invitrogen, USA) in accordance with manufacturer protocols. Thereafter, HEK293 cells were inoculated within Dulbecco’s modified Eagle’s medium (DMEM) containing 10% fetal bovine serum (FBS) at 5% CO2 and 37°C. The Kv4.3 channel and the Kv4.2 counterpart were then transfected in the absence of β subunit. Subsequently, cells were incubated with a DNA-lipofectamine mixture (one reporter plasmid for green fluorescence protein and channel constructs) for 4-6 h, and were washed with the fresh medium.\nAn EPC-10 patch-clamp amplifier (HEKA, Germany) was employed to record the potassium currents at the configuration of whole-cell patch-clamp under an ambient temperature of 22-25°C. The resistance was 2.0-3.0 MΩ when the recording pipette contained a full volume of internal solution (supplemented with 140 mM KCl, 10 mM HEPES, 2.5 mM MgCl2, 5 mM ATP and 11 mM EGTA). KOH was utilized to adjust the pH to 7.2, while sucrose was employed to adjust the osmolarity to 310 mOsm/L. The culture medium was replaced with an external solution containing 150 mM NaCl, 2.5 mM CaCl2, 10 mM HEPES, 2 mM MgCl2, 5 mM KCl, and 10 mM D-glucose. Similarly, sucrose and NaOH were applied to adjust the osmolarity to 330 mOsm/L and pH to 7.4. […] The series resistance was maintained at about 5 MΩ, with 65-70% compensation. Finally, the leakage currents and linear capacitance were subtracted digitally according to the P/4 protocol.\nSubsequently, we examined whether strong depolarization induced toxin dissociation from potassium channels. To address this question, the triple-pulse protocol was utilized, which used the test pulse of +20 mV after potent depolarization (+130 mV) to measure the available Kv4.2 currents (Fig. 6, inset). […] Furthermore, this toxin also affected the amplitude of outward Kv4.2 currents (46.3 ± 5.6%) by the second pulse (+130 mV). Typically, the amplitude of current acquired was nearly the same as that in controls induced by a third pulse (+20 mV), since the inhibition was only 17.5 ± 3.9% (Fig. 6, n = 7).\nFigure 6. Potent depolarization dissociated the toxin-channel complex. The 300 ms test pulse at the voltage of +20 mV was utilized to induce the current traces. Prior to the application of test pulse, cells held at the voltage of -80 mV depolarized for 500 ms at the conditioning pulse of +130 mV and the holding potential of 50 ms (see inset). Following 500 nM JZTX-X perfusion, the test pulse-elicited current amplitude was nearly identical to the control after the 500 ms conditioning pulse."}, "[2]": {"assay": "rotarod performance test in mice", "assay_type": "in vivo, mouse (male C57BL/6)", "conditions": "40 nmol/kg, n = 8; for time on accelerating rotarod: 1 h following treatment, cutoff 300 s", "method": "In the present study, male C57BL/6 mice weighing 20-25 g were utilized. This study was performed following the Guide for the Care and Use of Laboratory Animals released by the United States National Institutes of Health (US NIH). Our study protocol was approved by the Animal Experiments Ethics Committee at Central Southern University (No. 2018-2-6). Each operation was performed under isoflurane-induced anesthesia to reduce pain and minimize animal suffering. Lumbar puncture was also conducted for intrathecal injection, as described previously. Next, the effect of JZTX-X on nociception was evaluated by assessing the behaviors during the mechanical hyperalgesia process. The JZTX-X-induced mechanical hyperalgesia was investigated by two experiments via various administration routes, including intrathecal and intraplantar injections. Then, animals were challenged via intrathecal (10 µL) or intraplantar (20 µL) injection of JZTX-X (40 nmol/kg). The control group was given a physiological solution, which contained 0.9% NaCl, […].\nA rotarod accelerator treadmill (Med Associates Inc., St. Albans, VT) was utilized for rotarod performance tests, so as to determine […] motor function as previously described. Motor learning was also carried out by rotarod tests for evaluating the mice’s capacity to stay on the accelerating rotating drum. In JZTX-X- and saline- groups, all animals were acclimated for 30 min within the testing room, and placed for 300 s onto the rotarod that accelerated from 4 to 40 rpm. In addition, the latency time for animals falling from the rod was calculated before and after toxin injection, from the beginning of acceleration to falling onto the drum, and the maximum cutoff time was 300 s."}},
  "note": "Read-outs that look alike come from different tables or passages of the source. Where a SMILES comes first, the peptide text is derived from it. Bridges are numbered along the chain shown (N, C = ends).",
  "data": [
    {"compound": "CC(C)C[C@@H]1NC(=O)[C@H](CCCCN)NC(=O)[C@H](Cc2ccc(O)cc2)NC(=O)[C@@H]2CSSC[C@@H]3NC(=O)[C@H](Cc4ccc(O)cc4)NC(=O)[C@H](Cc4ccccc4)NC(=O)CNC(=O)[C@H](C)NC(=O)[C@H](CSSC[C@H](NC(=O)[C@@H](N)CC(C)C)C(=O)N[C@@H](CO)C(=O)N[C@@H](CCCNC(=N)N)C(=O)N[C@@H](CCC(=O)O)C(=O)NCC(=O)N[C@@H](CCC(=O)O)C(=O)N[C@@H](Cc4ccccc4)C(=O)N2)NC(=O)[C@H](CSSC[C@@H](C(=O)N[C@@H](Cc2ccc(O)cc2)C(=O)N[C@@H](CCCNC(=N)N)C(=O)N[C@@H](CC(N)=O)C(=O)O)NC(=O)[C@H](Cc2c[nH]cn2)NC(=O)[C@H](CC(C)C)NC(=O)[C@H](C(C)C)NC(=O)[C@H](Cc2ccccc2)NC(=O)[C@H](C)NC(=O)[C@H](CCCCN)NC3=O)NC(=O)[C@H](CCCCN)NC(=O)[C@H](CCCNC(=N)N)NC1=O", "note": "[JZTX-X, Jingzhaotoxin-X] (H-LCSREGEFCYKLRKCCAGFYCKAFVLHCYRN-OH; disulfide 2-16, 9-21, 15-28; N-terminus assumed)", "values": [
      {"measurement": "inhibition of Kv4.2 outward current, second pulse (+130 mV)", "setting": "[1]; 500 ms conditioning pulse, n = 7, 0.5 µM", "value": "~ 46%"},
      {"measurement": "inhibition of Kv4.2 current, first pulse (+20 mV)", "setting": "[1]; holding -80 mV, n = 7, 0.5 µM", "value": "~ 93%"},
      {"measurement": "inhibition at 0.5 µM", "setting": "[1]; 500 ms conditioning pulse, n = 7, read-out: inhibition of Kv4.2 outward current, second pulse (+130 mV)", "value": "46.3 ± 5.6", "unit": "%"},
      {"measurement": "inhibition at 0.5 µM", "setting": "[1]; after +130 mV conditioning pulse, n = 7, read-out: inhibition of Kv4.2 current, third pulse (+20 mV)", "value": "17.5 ± 3.9", "unit": "%"},
      {"measurement": "inhibition at 0.5 µM", "setting": "[1]; holding -80 mV, n = 7, read-out: inhibition of Kv4.2 current, first pulse (+20 mV)", "value": "92.6 ± 3.2", "unit": "%"},
      {"measurement": "effect on motor coordination", "setting": "[2]; intrathecal and intraplantar", "value": "made no difference to the motor coordination in mice"},
      {"measurement": "time on accelerating rotarod", "setting": "[2]; intraplantar, vehicle 118.8 ± 9.8 s", "value": "113.4 ± 8.3", "unit": "s"},
      {"measurement": "time on accelerating rotarod", "setting": "[2]; intrathecal, vehicle 117.9 ± 7.6 s", "value": "117.5 ± 7.8", "unit": "s"}
    ]}
  ]
}
